Measurements taken from patent US8193191B2, “Urotensin II receptor antagonists” (Janssen Pharmaceutica N.V., priority 2006, dated 2012).
pIC50, pKi: −log10 of the molar value. Like-named read-outs stand apart in the source and are kept apart here.

Tests used:
[1] = target: T1, rat GPR14 (U-II receptor) (Rattus norvegicus, UniProt P49684); experiment: Rat UII Calcium Mobilization FLIPR Assay; type: cell-based; conditions: average value for the compound tested; read-out: Rat UII FLIPR Average IC50
T1 construct: expressed in transfected cells
T1 sequence (P49684 1-386): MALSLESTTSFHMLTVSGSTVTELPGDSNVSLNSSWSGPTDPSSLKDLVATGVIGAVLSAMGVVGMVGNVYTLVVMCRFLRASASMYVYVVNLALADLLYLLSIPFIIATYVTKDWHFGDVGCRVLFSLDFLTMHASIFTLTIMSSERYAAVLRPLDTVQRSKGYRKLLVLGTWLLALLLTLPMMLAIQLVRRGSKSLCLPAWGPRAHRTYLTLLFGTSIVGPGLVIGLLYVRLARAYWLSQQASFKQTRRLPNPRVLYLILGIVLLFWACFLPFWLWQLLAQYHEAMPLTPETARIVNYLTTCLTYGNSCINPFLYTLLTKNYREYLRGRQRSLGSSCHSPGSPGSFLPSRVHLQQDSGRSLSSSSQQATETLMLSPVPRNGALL
How it was run: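 CHO cells stably expressing rat U-II receptor, seeded 24 h before assay, were loaded with FLIPR calcium dye in HBSS/20 mM HEPES/0.1% BSA/2.5 mM probenecid, pH 7.4, for 1 h at 37° C. Calcium mobilization then read by FLIPR at 23° C.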

[2] = target: T2, Human UII receptor, 6D9 human rhabdomyosarcoma cells (Homo sapiens, UniProt Q9UKP6); experiment: Human UII Calcium Mobilization Assay; type: cell-based; conditions: average value, FLIPR TETRA, read-out: Human UII Ca^+ Mobilization Average IC50
T2 construct: 6D9: isolated by dilution subcloning of RMS13 cells, ATCC® Number: CRL-2061; host or cells: 6D9 human rhabdomyosarcoma cells (subclone of RMS13)
T2 sequence (Q9UKP6 1-389): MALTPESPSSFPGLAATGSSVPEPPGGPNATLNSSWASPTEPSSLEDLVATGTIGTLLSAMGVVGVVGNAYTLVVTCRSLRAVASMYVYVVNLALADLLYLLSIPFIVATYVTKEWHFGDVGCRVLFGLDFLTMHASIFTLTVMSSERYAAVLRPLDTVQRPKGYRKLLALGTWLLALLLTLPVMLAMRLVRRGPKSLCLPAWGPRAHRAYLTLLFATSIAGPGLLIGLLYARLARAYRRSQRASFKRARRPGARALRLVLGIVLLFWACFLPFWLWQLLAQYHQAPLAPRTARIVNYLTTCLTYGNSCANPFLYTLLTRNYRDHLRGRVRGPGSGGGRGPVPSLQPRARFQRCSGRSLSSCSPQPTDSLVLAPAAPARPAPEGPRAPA
How it was run: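 6D9 rhabdomyosarcoma cells loaded 45 min at 37° C with calcium dye (1.25 mM probenecid, 0.01% FBS, HBSS/20 mM HEPES). Antagonist and U-II agonist added at room temperature; FLIPR fluorescence read over 4 min; EC50/IC50 fitted. DMSO ≤0.1% final.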

[3] = target: T3, endogenous human UII receptor (Homo sapiens, UniProt Q9UKP6); experiment: Human Radioligand Binding Assay ((^125I)-U-II binding to human skeletal muscle myoblasts)
T3 sequence (Q9UKP6 1-389): T2 sequence (Q9UKP6 1-389)

| SMILES | pIC50 [1] | pIC50 [2] | pKi [3] | pKi ([3]; read-out: Human UII Average Binding Ki, average value, (^125I)-U-II binding to human skeletal muscle myoblasts (HSMM), 25° C., 3 h) |
| --- | --- | --- | --- | --- |
| COC(=O)c1csc(S(=O)(=O)NCCCC(c2ccc(OC)c(OC)c2)N2C(=O)c3cccc(N4CCN([C@H](C)c5ccccc5)CC4)c3C2=O)c1OC (stereo partly drawn) [Cpd 88, 5-(4-(3,4-dimethoxy-phenyl)-4-{1,3-dioxo-4-[4-(1R)-(1-phenyl-ethyl)-piperazin-1-yl]-1,3-dihydro-isoindol-2-yl}-butylsulfamoyl)-4-methoxy-thiophene-3-carboxylic acid methyl ester] | 6.49 | < 5.52 | 6.46 | – |
| COc1ccc(C(CCCNS(=O)(=O)c2c(C)nn(C)c2Cl)N2C(=O)c3cccc(N4CCN([C@H](C)c5ccccc5)CC4)c3C2=O)cc1OC (stereo partly drawn) [Cpd 101, 5-chloro-1,3-dimethyl-1H-pyrazole-4-sulfonic acid (4-(3,4-dimethoxy-phenyl)-4-{1,3-dioxo-4-[4-(1R)-(1-phenyl-ethyl)-piperazin-1-yl]-1,3-dihydro-isoindol-2-yl}-butyl)-amide] | 7.52 | 6.52 | 6.92 | – |
| COc1ccc([C@@H](CCCNC(=O)c2cccn2C)N2C(=O)c3cccc(N4CCN([C@H](C)c5ccccc5)CC4)c3C2=O)cc1OC [Cpd 147, (R)-1-methyl-1H-pyrrole-2-carboxylic acid (4-(3,4-dimethoxy-phenyl)-4-{1,3-dioxo-4-[4-(1R)-(1-phenyl-ethyl)-piperazin-1-yl]-1,3-dihydro-isoindol-2-yl}-butyl)-amide] | 7.49 | 5.68 | 6.80 | – |
| COc1ccc([C@@H](CCCNC(=O)c2c(C)noc2C)N2C(=O)c3cccc(N4CCN([C@H](C)c5ccccc5)CC4)c3C2=O)cc1OC [Cpd 164, (R)-3,5-dimethyl-isoxazole-4-carboxylic acid (4-(3,4-dimethoxy-phenyl)-4-{1,3-dioxo-4-[4-(1R)-(1-phenyl-ethyl)-piperazin-1-yl]-1,3-dihydro-isoindol-2-yl}-butyl)-amide] | 7.89 | 6.52 | 7.00 | – |
| COc1ccc(C(CCCNS(=O)(=O)c2c(C)nn(C)c2C)N2C(=O)c3cccc(N4CCN([C@H](C)c5ccccc5)CC4)c3C2=O)cc1OC (stereo partly drawn) [Cpd 91, 1,3,5-trimethyl-1H-pyrazole-4-sulfonic acid (4-(3,4-dimethoxy-phenyl)-4-{1,3-dioxo-4-[4-(1R)-(1-phenyl-ethyl)-piperazin-1-yl]-1,3-dihydro-isoindol-2-yl}-butyl)-amide] | 7.82 | 6.51 | 6.82 | – |
| COc1ccc([C@@H](CCCNC(=O)C(C)C)N2C(=O)c3cccc(N4CCN([C@H](C)c5ccccc5)CC4)c3C2=O)cc1OC [Cpd 174, (R)-N-(4-(3,4-dimethoxy-phenyl)-4-{1,3-dioxo-4-[4-(1R)-(1-phenyl-ethyl)-piperazin-1-yl]-1,3-dihydro-isoindol-2-yl}-butyl)-isobutyramide] | 7.96 | 6.21 | 7.72 | – |
| COc1ccc([C@@H](CCCNS(=O)(=O)c2cnn(C)c2C)N2C(=O)c3cccc(N4CCN([C@H](C)c5ccccc5)CC4)c3C2=O)cc1OC [Cpd 132, (R)-1,5-dimethyl-1H-pyrazole-4-sulfonic acid (4-(3,4-dimethoxy-phenyl)-4-{1,3-dioxo-4-[4-(1R)-(1-phenyl-ethyl)-piperazin-1-yl]-1,3-dihydro-isoindol-2-yl}-butyl)-amide] | 8.01 | 6.47 | 7.14 | – |
| CCN1CCN(c2cccc3c2C(=O)N([C@H](CCCNS(=O)(=O)c2cn(C)c(C)n2)c2ccc(OC)c(OC)c2)C3=O)CC1 [Cpd 203, (R)-1,2-dimethyl-1H-imidazole-4-sulfonic acid {4-(3,4-dimethoxy-phenyl)-4-[4-(4-ethyl-piperazin-1-yl)-1,3-dioxo-1,3-dihydro-isoindol-2-yl]-butyl}-amide] | 6.85 | 6.09 | – | 7.01 |
| COc1ccc(C(CCCNS(=O)(=O)c2c(Cl)nc3sccn23)N2C(=O)c3cccc(N4CCN([C@H](C)c5ccccc5)CC4)c3C2=O)cc1OC (stereo partly drawn) [Cpd 93, 6-chloro-imidazo[2,1-b]thiazole-5-sulfonic acid (4-(3,4-dimethoxy-phenyl)-4-{1,3-dioxo-4-[4-(1R)-(1-phenyl-ethyl)-piperazin-1-yl]-1,3-dihydro-isoindol-2-yl}-butyl)-amide] | 6.74 | < 5.52 | 6.34 | – |
| COc1ccc([C@@H](CCCNC(=O)c2ccc(S(C)(=O)=O)s2)N2C(=O)c3cccc(N4CCN([C@H](C)c5ccccc5)CC4)c3C2=O)cc1OC [Cpd 157, (R)-5-methanesulfonyl-thiophene-2-carboxylic acid (4-(3,4-dimethoxy-phenyl)-4-{1,3-dioxo-4-[4-(1R)-(1-phenyl-ethyl)-piperazin-1-yl]-1,3-dihydro-isoindol-2-yl}-butyl)-amide] | 7.49 | 6.17 | 6.59 | – |

The next lines start with results.

| pIC50 [1] | pIC50 [2] | pKi [3] | SMILES | pKi ([3]; read-out: Human UII Average Binding Ki, average value, (^125I)-U-II binding to human skeletal muscle myoblasts (HSMM), 25° C., 3 h) |
| --- | --- | --- | --- | --- |
| 7.70 | 5.89 | 6.92 | COc1ccc([C@@H](CCCNC(=O)c2cc(C)[nH]c2C)N2C(=O)c3cccc(N4CCN([C@H](C)c5ccccc5)CC4)c3C2=O)cc1OC [Cpd 188, (R)-2,5-dimethyl-1H-pyrrole-3-carboxylic acid (4-(3,4-dimethoxy-phenyl)-4-{1,3-dioxo-4-[4-(1R)-(1-phenyl-ethyl)-piperazin-1-yl]-1,3-dihydro-isoindol-2-yl}-butyl)-amide] | – |
| 7.51 | 5.82 | 7.16 | COc1ccc([C@@H](CCCNC(=O)[C@@H]2CCCN2C)N2C(=O)c3cccc(N4CCN([C@H](C)c5ccccc5)CC4)c3C2=O)cc1OC [Cpd 191, (S)-1-methyl-pyrrolidine-2-carboxylic acid (R)-(4-(3,4-dimethoxy-phenyl)-4-{1,3-dioxo-4-[4-(1R)-(1-phenyl-ethyl)-piperazin-1-yl]-1,3-dihydro-isoindol-2-yl}-butyl)-amide] | – |
| 8.21 | 6.54 | 7.70 | COc1ccc([C@@H](CCCNC(=O)c2cn[nH]c2)N2C(=O)c3cccc(N4CCN([C@H](C)c5ccccc5)CC4)c3C2=O)cc1OC [Cpd 190, (R)-1H-pyrazole-4-carboxylic acid (4-(3,4-dimethoxy-phenyl)-4-{1,3-dioxo-4-[4-(1R)-(1-phenyl-ethyl)-piperazin-1-yl]-1,3-dihydro-isoindol-2-yl}-butyl)-amide] | – |
| 8.15 | 6.19 | 7.52 | COc1ccc([C@@H](CCCNS(=O)(=O)c2cccs2)N2C(=O)c3cccc(N4CCN(C5CCC5)CC4)c3C2=O)cc1OC [Cpd 192, (R)-thiophene-2-sulfonic acid [4-[4-(4-cyclobutyl-piperazin-1-yl)-1,3-dioxo-1,3-dihydro-isoindol-2-yl]-4-(3,4-dimethoxy-phenyl)-butyl]-amide] | – |
| 7.89 | 6.07 | 7.62 | CCCC(=O)NCCC[C@H](c1ccc(OC)c(OC)c1)N1C(=O)c2cccc(N3CCN([C@H](C)c4ccccc4)CC3)c2C1=O [Cpd 176, (R)-N-(4-(3,4-dimethoxy-phenyl)-4-{1,3-dioxo-4-[4-(1R)-(1-phenyl-ethyl)-piperazin-1-yl]-1,3-dihydro-isoindol-2-yl}-butyl)-butyramide] | – |
| 7.82 | 6.04 | 7.14 | COc1ccc([C@@H](CCNC(=O)c2ccncc2)N2C(=O)c3cccc(N4CCN([C@H](C)c5ccccc5)CC4)c3C2=O)cc1OC [Cpd 221, (R)-N-(3-(3,4-dimethoxy-phenyl)-3-{1,3-dioxo-4-[4-(1R)-(1-phenyl-ethyl)-piperazin-1-yl]-1,3-dihydro-isoindol-2-yl}-propyl)-isonicotinamide] | – |
| 6.17 | 5.47 | 6.29 | CCN1CCN(c2cccc3c2C(=O)N(C(c2cccc(NS(=O)(=O)O)c2)c2ccc(OC)c(OC)c2)C3=O)CC1 (stereo not drawn) [Cpd 231, (3-{(3,4-dimethoxy-phenyl)-[4-(4-ethyl-piperazin-1-yl)-1,3-dioxo-1,3-dihydro-isoindol-2-yl]-methyl}-phenyl)-sulfamic acid] | – |
